Reference: ChEMBL document CHEMBL1158770, “Cladionol A, a polyketide glycoside from marine-derived fungus Gliocladium species” (J Nat Prod, 2005)
In brackets after ≈: the same amount, converted by molar mass.

How the values were obtained:
L1210 = experiment: Cytotoxicity against mouse L1210 cells; format: functional, cell-based
KB = experiment: Cytotoxicity against human KB cells; format: functional, cell-based

CCC(C)CC(C)CC(C)C(O[C@@H]1O[C@H](C(=O)OC)[C@@H](O)[C@H](O)[C@@H]1O)C(C)/C=C(\C)C(O)C(C)/C=C(\C)C(O)C(C)/C=C(\C)[C@H](O)[C@@H](C)C(=O)OC[C@H](O)[C@@H](O)[C@@H](O)CO (some centres not stated) [CLADIONOL A]
IC50 (L1210): 5 µg/mL (≈ 5.79 µM)
IC50 (KB): 7 µg/mL (≈ 8.11 µM)
